Earlier results in US20090004170A1, “COMPOSITION COMPRISING COENZYME Q10” (Kaneka Corporation, priority 2007, published 2009).

Key:
[1] = not given; remark: listed apart in the source

solubility in water: sparingly soluble
absorbability by oral ingestion [1]: extremely low
SMILES: COC1=C(OC)C(=O)C(C/C=C(\C)CC/C=C(\C)CC/C=C(\C)CC/C=C(\C)CC/C=C(\C)CC/C=C(\C)CC/C=C(\C)CC/C=C(\C)CC/C=C(\C)CCC=C(C)C)=C(C)C1=O [coenzyme Q10]
